Consider six compounds from ChEMBL document CHEMBL1142054, “QSAR-by-NMR: quantitative insights into structural determinants for binding affinity by analysis of 1H/15N chemical shift differences in MMP-3 ligands” (Bioorg Med Chem Lett, 2005).

Each structure is given as a SMILES string.

For assay [1], the target named is T1, Stromelysin-1 (Homo sapiens, UniProt P08254). Briefly: (§1) Binding affinity for human Matrix metalloprotease-3.
Target sequence in this assay (P08254 100-477 limits assumed): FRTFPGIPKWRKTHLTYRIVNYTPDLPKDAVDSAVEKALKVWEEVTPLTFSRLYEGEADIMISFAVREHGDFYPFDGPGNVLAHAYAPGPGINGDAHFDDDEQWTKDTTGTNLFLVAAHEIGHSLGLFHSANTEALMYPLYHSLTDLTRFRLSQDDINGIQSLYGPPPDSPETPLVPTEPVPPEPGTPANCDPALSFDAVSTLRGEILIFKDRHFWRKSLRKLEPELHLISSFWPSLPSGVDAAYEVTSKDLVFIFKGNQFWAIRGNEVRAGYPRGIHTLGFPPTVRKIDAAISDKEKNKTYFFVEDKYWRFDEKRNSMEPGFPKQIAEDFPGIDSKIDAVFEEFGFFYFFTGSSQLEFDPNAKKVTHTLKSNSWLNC
In another assay the target is Neutrophil collagenase (Homo sapiens, UniProt P22894). Briefly: Binding affinity for human Matrix metalloprotease-8.
Assay [2] concerns the target T1, Stromelysin-1. The assay is described as §1. This is another data set of the same source.
Target sequence in this assay (P08254 whole entry): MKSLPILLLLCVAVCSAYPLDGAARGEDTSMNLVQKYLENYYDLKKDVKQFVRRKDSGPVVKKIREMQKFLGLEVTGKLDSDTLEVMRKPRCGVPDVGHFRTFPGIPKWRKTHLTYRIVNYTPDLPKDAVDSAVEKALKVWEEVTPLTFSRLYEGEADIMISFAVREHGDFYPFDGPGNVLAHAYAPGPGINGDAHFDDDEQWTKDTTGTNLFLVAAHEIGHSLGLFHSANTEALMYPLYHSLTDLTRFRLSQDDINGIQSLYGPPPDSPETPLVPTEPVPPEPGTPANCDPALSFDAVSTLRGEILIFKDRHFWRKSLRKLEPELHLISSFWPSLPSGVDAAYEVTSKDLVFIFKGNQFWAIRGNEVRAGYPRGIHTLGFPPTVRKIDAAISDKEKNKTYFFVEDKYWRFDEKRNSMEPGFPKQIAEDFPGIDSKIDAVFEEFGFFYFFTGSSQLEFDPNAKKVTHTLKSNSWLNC

Sequence of Neutrophil collagenase (P22894 whole entry): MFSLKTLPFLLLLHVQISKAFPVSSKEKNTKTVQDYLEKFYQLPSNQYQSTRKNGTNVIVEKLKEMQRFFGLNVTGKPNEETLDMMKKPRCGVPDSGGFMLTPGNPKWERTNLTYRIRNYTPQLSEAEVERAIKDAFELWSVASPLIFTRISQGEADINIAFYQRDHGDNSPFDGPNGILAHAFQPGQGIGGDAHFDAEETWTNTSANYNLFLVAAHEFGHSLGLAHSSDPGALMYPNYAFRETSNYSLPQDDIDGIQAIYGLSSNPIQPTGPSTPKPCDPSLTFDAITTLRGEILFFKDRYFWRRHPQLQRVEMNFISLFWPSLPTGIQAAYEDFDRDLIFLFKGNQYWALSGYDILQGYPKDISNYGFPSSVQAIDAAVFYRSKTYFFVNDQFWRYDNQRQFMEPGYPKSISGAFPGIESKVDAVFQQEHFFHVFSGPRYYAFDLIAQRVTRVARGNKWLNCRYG

`O=C(O)[C@H]1Cc2ccccc2CC1S(=O)(=O)c1ccc(CCc2ccccc2)cc1` (some centres not stated) had a Concentration on Stromelysin-1 [1] of 50 nM. Take `O=C(O)[C@H]1Cc2ccccc2CC1S(=O)(=O)c1ccc(Oc2ccccc2)cc1` (some centres not stated): the Concentration on Stromelysin-1 [1] is 200 nM.

`N#Cc1ccc(-c2ccc(S(=O)(=O)C3Cc4ccccc4C[C@@H]3C(=O)O)cc2)cc1` (some centres not stated) showed a Concentration on Stromelysin-1 [1] of 1000 nM. The same measure, in the same setting: with `O=C(O)[C@H]1Cc2ccccc2CC1S(=O)(=O)c1ccc(Cl)cc1` (some centres not stated) the figure was 100 nM.

Broadly, the IC50 is the concentration that gives 50% inhibition. With `O=C(O)[C@H]1Cc2ccccc2CC1S(=O)(=O)c1ccc(-c2ccccc2)cc1` (some centres not stated), the IC50 on Neutrophil collagenase turned out to be 10 nM; at Stromelysin-1 [2], 500 nM. `O=C(O)[C@H]1Cc2ccccc2CC1S(=O)(=O)c1ccc(F)cc1` (some centres not stated) displayed a Concentration on Stromelysin-1 [1] of 400 nM.
